{"source": "patent US20260207570A1", "about": "“OPTIMIZED DOSING OF LERIGLITAZONE” (MINORYX THERAPEUTICS S.L., priority 2022, published 2026)", "key": {"[1]": {"assay": "Phase 1 multiple ascending dose (MAD) pharmacokinetics with CSF collection in healthy volunteers", "format": "in vivo, human", "details": "for CSF C4h / concentration at 4 h: total; for accumulation RCmax: day 8 vs day 1; for Vd/F: read-out: Vz/F", "protocol": "(§1) Study design: A phase 1, randomized, double blind, placebo-controlled, single-center clinical study in 33 male healthy volunteers (HV) (19-54 years, 63.2-95.7 Kg) was conducted with leriglitazone HCl and divided in two parts: a single ascending dose (SAD) with three dose levels (30, 90 and 270 mg) in fasted conditions, followed with two dose levels (90 and 270 mg) in fed conditions; a multiple ascending dose (MAD) with a double-blind, parallel-design with two dose levels (135 and 270 mg) for 8 days and a separate cohort of subjects in an open-label parallel design with two dose levels (135 and 270 mg) including cerebrospinal fluid (CSF) collection on day 8. In the fasted conditions a fasting period of at least 4 hours was required before obtaining plasma samples. The food effect (FE) was assessed by comparing fasted with fed conditions (dosing after a high-fat breakfast per FDA definition with a calculated caloric content of 918 kcal). In the MAD part (fed) the medication was taken before a normal breakfast. Leriglitazone HCl was supplied by ChemConnection and an oral suspension of leriglitazone (20% w/v kleptose, 2% ethanol in 100 mM phosphate buffer pH=7.8) at 6 mg/ml was used in the study.\n(§2) Blood, Urine and CSF sampling: In the SAD, blood samples were drawn at the following time points: pre-dose and 0.25, 0.5, 0.75, 1, 1.5, 2, 2.5, 3, 4, 5, 6, 8, 10, 12, 16, 24, 36, 48, 72, 96 and 120 hours post-dose. Urine was collected at pre-dose (within 12 hours prior to dosing) and over 0-6, 6-12, 12-24, 24-36, 36-48 hours post-dose collection intervals. In the MAD, blood samples were collected on day 1 at pre-dose and 0.25, 0.5, 0.75, 1, 1.5, 2, 2.5, 3, 4, 5, 6, 8, 10, 12, and 16 hours post-dose and at pre-dose and at 4 hours post-dose on day 2 to day 7, and on day 8 at pre-dose and 0.25, 0.5, 0.75, 1, 1.5, 2, 2.5, 3, 4, 5, 6, 8, 10, 12, 16, 24, 36, 48, 72, 96 and 120 hours post-dose. CSF were taken on day −1 and on day 8, at 4 hours post-dose.\n(§3) Pharmacokinetic parameter calculation: PK parameters (Cmax, Tmax, t1/2, AUC0-t, CL/F, Vz/F, AUC0-t, RAUC, RCmax) were estimated using non-compartmental analysis (NCA) (Phoenix WinNonlin® Version 6.3).\n(§4) Statistical analysis: Descriptive statistics for all relevant PK parameters: n, mean, minimum, median, maximum, geometric mean, and coefficient of variation (CV %); analysis of variance on Cmax and AUC to determine dose proportionality and food effect (FE).\nThe ratio of unbound leriglitazone concentration in brain to unbound concentration in plasma (Kpu,u; Cb,u/Cp,u) was calculated dividing the unbound CSF Cmax by the unbound plasma Cmax. Fractions unbound in plasma (fu,p) to obtain the unbound Cmax values were already reported. Rodriguez-Pascau, L. et al., Sci. Transl. Med. 13, eabc0555 (2021)."}, "[2]": {"assay": "Phase 1 single ascending dose (SAD) pharmacokinetics in healthy volunteers", "format": "in vivo, human", "details": "for Ka: estimated; for CL/F: geometric mean (CV %)", "protocol": "as §1, §2, §3, §4"}}, "note": "“And” between values parts separate entries of the source, which are not always exact repeats. Equal values may be shown once. Read-outs that look alike come from different tables or passages of the source."}
{"smiles": "CC(O)c1ccc(CCOc2ccc(CC3SC(=O)NC3=O)cc2)nc1", "note": "(stereo not shown) [Leriglitazone, 5-[[4-[2-[5-(1-hydroxyethyl)pyridin-2-yl]ethoxy]phenyl]methyl]-1,3-thiazolidine-2,4-dione]", "values": [{"measurement": "CL/F", "setting": "[1]; 135 mg MD Day 1, n = 8, geometric mean (CV %)", "result": "1.59 (17.8) L./h"}, {"measurement": "CSF C4h", "setting": "[1]; 135 mg MD Day 8, 4 hours post-dose, geometric mean (CV %)", "result": "188 (15.9) ng/mL"}, {"measurement": "CL/F", "setting": "[1]; 270 mg MD Day 1, n = 8, geometric mean (CV %)", "result": "1.63 (14.4) L./h"}, {"measurement": "CSF C4h", "setting": "[1]; 270 mg MD Day 8, 4 hours post-dose, geometric mean (CV %)", "result": "332 (13.4) ng/mL"}, {"measurement": "increase of CSF concentration on doubling the dose", "setting": "[1]; 270 mg vs 135 mg, day 8, 4 hours post-dose", "result": 1.8, "unit": "fold"}, {"measurement": "accumulation RCmax", "setting": "[1]; MAD 135 mg", "result": 1.7}, {"measurement": "accumulation RAUC", "setting": "[1]; MAD 270 mg dose", "result": 1.81}, {"measurement": "accumulation RCmax", "setting": "[1]; MAD 270 mg", "result": 1.7}, {"measurement": "time to steady state", "setting": "[1]; MAD 135 or 270 mg daily, fed", "result": 5, "unit": "days"}, {"measurement": "CSF Cmax", "setting": "[1]; human, 135 mg", "result": 188, "unit": "ng/mL"}, {"measurement": "CSF Cmax", "setting": "[1]; human, 270 mg", "result": 332, "unit": "ng/mL"}, {"measurement": "brain penetration", "setting": "[1]; judged from CSF to plasma concentrations", "result": "good"}, {"measurement": "Kp at 4 h", "setting": "[1]; male, CSF and plasma (unbound), oral, human, 135 mg, unbound CSF Cmax / unbound plasma Cmax, read-out: Kpu, u based on CSF", "result": 0.55}, {"measurement": "Kp", "setting": "[1]; male, CSF and plasma (unbound), oral, human, 270 mg, unbound CSF Cmax / unbound plasma Cmax, read-out: Kpu, u based on CSF", "result": 0.54}, {"measurement": "Kp at 4 h", "setting": "[1]; male, human, CSF and plasma, oral, 135 mg MD Day 8, geometric mean (CV %), read-out: CSF/Plasma", "result": 0.021}, {"measurement": "Kp at 4 h", "setting": "[1]; male, human, CSF and plasma, oral, 270 mg MD Day 8, geometric mean (CV %), read-out: CSF/Plasma", "result": 0.024}, {"measurement": "Kp at 4 h", "setting": "[1]; male, human, CSF and plasma, oral, day 8, 4 hours post-dose, read-out: total concentrations in CSF as share of total plasma concentrations", "result": "0.022 to 0.025"}, {"measurement": "concentration at 4 h", "setting": "[1]; male, human, CSF, oral, 135 mg MD Day 8, 4 hours post-dose, geometric mean (CV %), read-out: CSF C4h", "result": 188, "unit": "ng/mL"}, {"measurement": "concentration at 4 h", "setting": "[1]; male, human, CSF, oral, 270 mg MD Day 8, 4 hours post-dose, geometric mean (CV %), read-out: CSF C4h", "result": 332, "unit": "ng/mL"}, {"measurement": "Tmax", "setting": "[1]; male, human, plasma, oral, 135 mg, 135 mg MD Day 1, n = 8, Median, read-out: Tmax", "result": 3, "unit": "h"}, {"measurement": "Vd/F", "setting": "[1]; male, human, plasma, oral, 135 mg, 135 mg MD Day 1, n = 8, geometric mean (CV %)", "result": 47.1, "unit": "L"}, {"measurement": "Cmax", "setting": "[1]; male, human, plasma, oral, 135 mg, 135 mg MD Day 1, n = 8, plasma total, geometric mean, read-out: Cmax", "result": 5430, "unit": "ng/mL"}, {"measurement": "Tmax", "setting": "[1]; male, human, plasma, oral, 135 mg, 135 mg MD Day 8, n = 8, Median, read-out: Tmax", "result": 4, "unit": "h"}, {"measurement": "Vd/F", "setting": "[1]; male, human, plasma, oral, 135 mg, 135 mg MD Day 8, n = 8, geometric mean (CV %)", "result": 27.7, "unit": "L"}, {"measurement": "Cmax", "setting": "[1]; male, human, plasma, oral, 135 mg, 135 mg MD Day 8, n = 8, plasma total, geometric mean, read-out: Cmax", "result": 9500, "unit": "ng/mL"}, {"measurement": "AUC", "setting": "[1]; male, human, plasma, oral, 135 mg, 135 mg daily, fed, Day 1, read-out: AUC, Observed", "result": 85.1, "unit": "µg·h/mL"}, {"measurement": "Cmax", "setting": "[1]; male, human, plasma, oral, 135 mg, 135 mg daily, fed, Day 1, read-out: Cmax, Observed", "result": 5490, "unit": "ng/mL"}, {"measurement": "Tmax", "setting": "[1]; male, human, plasma, oral, 135 mg, 135 mg daily, fed, Day 1, read-out: Tmax, Observed", "result": 3, "unit": "h"}, {"measurement": "AUC", "setting": "[1]; male, human, plasma, oral, 135 mg, 135 mg daily, fed, Day 8, read-out: AUC, Observed", "result": 145, "unit": "µg·h/mL"}, {"measurement": "Cmax", "setting": "[1]; male, human, plasma, oral, 135 mg, 135 mg daily, fed, Day 8, read-out: Cmax, Observed", "result": 9490, "unit": "ng/mL"}, {"measurement": "Tmax", "setting": "[1]; male, human, plasma, oral, 135 mg, 135 mg daily, fed, Day 8, read-out: Tmax, Observed", "result": 4, "unit": "h"}, {"measurement": "AUC", "setting": "[1]; male, human, plasma, oral, 135 mg, human, 135 mg, read-out: Total plasma AUC", "result": 145, "unit": "µg·h/mL"}, {"measurement": "Cmax", "setting": "[1]; male, human, plasma, oral, 135 mg, human, 135 mg, read-out: Total plasma Cmax", "result": 9490, "unit": "ng/mL"}, {"measurement": "Tmax", "setting": "[1]; male, human, plasma, oral, 270 mg, 270 mg MD Day 1, n = 8, Median, read-out: Tmax", "result": 3, "unit": "h"}, {"measurement": "Vd/F", "setting": "[1]; male, human, plasma, oral, 270 mg, 270 mg MD Day 1, n = 8, geometric mean (CV %)", "result": 52.7, "unit": "L"}, {"measurement": "Cmax", "setting": "[1]; male, human, plasma, oral, 270 mg, 270 mg MD Day 1, n = 8, plasma total, geometric mean, read-out: Cmax", "result": 10000, "unit": "ng/mL"}, {"measurement": "Tmax", "setting": "[1]; male, human, plasma, oral, 270 mg, 270 mg MD Day 8, n = 7, Median, read-out: Tmax", "result": 4, "unit": "h"}, {"measurement": "Vd/F", "setting": "[1]; male, human, plasma, oral, 270 mg, 270 mg MD Day 8, n = 7, geometric mean (CV %)", "result": 29.5, "unit": "L"}, {"measurement": "Cmax", "setting": "[1]; male, human, plasma, oral, 270 mg, 270 mg MD Day 8, n = 7, plasma total, geometric mean, read-out: Cmax", "result": 17000, "unit": "ng/mL"}, {"measurement": "AUC", "setting": "[1]; male, human, plasma, oral, 270 mg, 270 mg daily, fed, Day 1, read-out: AUC, Observed", "result": 165, "unit": "µg·h/mL"}, {"measurement": "Cmax", "setting": "[1]; male, human, plasma, oral, 270 mg, 270 mg daily, fed, Day 1, read-out: Cmax, Observed", "result": 10000, "unit": "ng/mL"}, {"measurement": "Tmax", "setting": "[1]; male, human, plasma, oral, 270 mg, 270 mg daily, fed, Day 1, read-out: Tmax, Observed", "result": 3, "unit": "h"}, {"measurement": "AUC", "setting": "[1]; male, human, plasma, oral, 270 mg, 270 mg daily, fed, Day 8, read-out: AUC, Observed", "result": 299, "unit": "µg·h/mL"}, {"measurement": "Cmax", "setting": "[1]; male, human, plasma, oral, 270 mg, 270 mg daily, fed, Day 8, read-out: Cmax, Observed", "result": 17200, "unit": "ng/mL"}, {"measurement": "Tmax", "setting": "[1]; male, human, plasma, oral, 270 mg, 270 mg daily, fed, Day 8, read-out: Tmax, Observed", "result": 4, "unit": "h"}, {"measurement": "AUC", "setting": "[1]; male, human, plasma, oral, 270 mg, human, 270 mg, read-out: Total plasma AUC", "result": 299, "unit": "µg·h/mL"}, {"measurement": "Cmax", "setting": "[1]; male, human, plasma, oral, 270 mg, human, 270 mg, read-out: Total plasma Cmax", "result": 17200, "unit": "ng/mL"}, {"measurement": "concentration at 4 h", "setting": "[1]; male, human, plasma, oral, 270 mg MD Day 8, 4 hours post-dose, geometric mean (CV %), read-out: Plasma C4h", "result": 14200, "unit": "ng/mL"}, {"measurement": "mean CL/F", "setting": "[1]; phase 1 MAD part day 8", "result": 0.93, "unit": "L/h"}, {"measurement": "dose excreted in urine as free analyte", "setting": "[2]; 48-hour collection period", "result": "< 0.4", "unit": "%"}, {"measurement": "dose excreted in urine as the analyte, mostly in a conjugated state", "setting": "[2]; 48-hour collection period", "result": 6.5, "unit": "%"}, {"measurement": "Ka", "setting": "[2]; SAD 30 mg Fasted", "result": "6.35 (CV: 676%) 1/h"}, {"measurement": "CL/F", "setting": "[2]; SAD 30 mg fasted, n = 6", "result": "0.679 (9.0) L/h"}, {"measurement": "Ka", "setting": "[2]; SAD 90 mg Fasted", "result": "4.43 (CV: 222%) 1/h"}, {"measurement": "Ka", "setting": "[2]; SAD 90 mg Fed", "result": "0.89 1/h and 0.89 (CV: 68%) 1/h"}, {"measurement": "CL/F", "setting": "[2]; SAD 90 mg fasted, n = 6", "result": "0.746 (10.1) L/h"}, {"measurement": "CL/F", "setting": "[2]; SAD 90 mg fed, n = 3", "result": "0.747 (6.7) L/h"}, {"measurement": "Ka", "setting": "[2]; SAD 270 mg Fasted", "result": "1.92 (CV: 75%) 1/h"}]}
